Experimental data: PMC5571739 (Journal of neuro-oncology, 2016)
“And” between values parts separate entries of the source, which are not always exact repeats. Identical values can stand only once.

Key:
[1] = system: hepatic CYP450 enzyme system; conditions: cited from earlier work
[2] = Plasma pharmacokinetics of RO4929097 alone and with bevacizumab; type: in vivo, human; conditions: for AUC24: plasma, geometric mean; for AUC24 Δ% / Cmax Δ%: day 15 with bevacizumab vs day 1 alone
[3] = system: patients with recurrent malignant gliomas

Compound | Substrate or modulator of hepatic CYP450 enzyme system [1] | AUC24 ([2]; 5 mg oral, day 1, no concurrent bevacizumab) | AUC24 ([2]; 5 mg oral, day 15, concurrent bevacizumab) | AUC24 Δ% ([2]; 5 mg) | AUC24 ([2]; 10 mg oral, day 1, no concurrent bevacizumab) | AUC24 Δ% ([2]; 10 mg) | Cmax Δ% ([2]; 10 mg) | AUC24 ([2]; 20 mg oral, day 1, no concurrent bevacizumab) | AUC24 ([2]; 20 mg oral, day 15, concurrent bevacizumab) | AUC24 Δ% ([2]; 20 mg) | Cmax Δ% ([2]; 20 mg) | Dose proportionality of mean Cmax ([2]; escalation of the dose from 5 to 20 mg) | Definitive maximum tolerated dose ([3]; in combination with bevacizumab, drug production halted) | Recommended phase II dose ([3]; orally 3 days on/4 days off each week in combination with bevacizumab)
Bevacizumab: monoclonal antibody directed against vascular endothelial growth factor | not a substrate or modulator |  |  |  |  |  |  |  |  |  |  |  |  | 
CC(C)(C(=O)NCC(F)(F)C(F)(F)F)C(=O)N[C@@H]1C(=O)Nc2ccccc2-c2ccccc21 [RO4929097] |  | 1,215 ng●h/mL | 1,212 ng●h/mL | −0.2% | 2,385 ± 606 ng●h/mL and 2,385 ng●h/mL | −1.5% | 7.0% | 2,232 ± 781 ng●h/mL and 2,232 ng●h/mL | 2,555 ng●h/mL | 14.5% | 1.9% | increased less than proportionately | not identified | 10 mg/kg
